Where “and” joins values, the source holds several entries; their conditions need not be identical. Equal entries are not always repeated. Where two headings read alike, the source gives them in different places.
Columns and labels:
[1] = biological target: wild-type EP4R (Homo sapiens, UniProt P35408); test: cell-based
[2] = biological target: T1, EP4R (Homo sapiens, UniProt P35408); test: PRESTO-Tango β-arrestin2 recruitment assay; assay type: cell-based; conditions: for Ki: PRESTO-Tango Ki* (nM)
T1 construct: Tango fusion cassette (only 'tango' is printed); expressed in transfected cells; host or cells: HTLA cells (tTA-dependent luciferase reporter, β-arrestin2-TEV fusion)

[3] = biological target: T1, EP4R; test: biochemical; assay type: binding
[4] = biological target: T1, EP4R; test: cell-based
[5] = biological target: T2, Thromboxane A2 (TP) receptor (Homo sapiens, UniProt P21731); test: Functional cAMP production assay, TP receptor; assay type: cell-based; conditions: agonist alone, replicate columns
T2 sequence (P21731 1-343): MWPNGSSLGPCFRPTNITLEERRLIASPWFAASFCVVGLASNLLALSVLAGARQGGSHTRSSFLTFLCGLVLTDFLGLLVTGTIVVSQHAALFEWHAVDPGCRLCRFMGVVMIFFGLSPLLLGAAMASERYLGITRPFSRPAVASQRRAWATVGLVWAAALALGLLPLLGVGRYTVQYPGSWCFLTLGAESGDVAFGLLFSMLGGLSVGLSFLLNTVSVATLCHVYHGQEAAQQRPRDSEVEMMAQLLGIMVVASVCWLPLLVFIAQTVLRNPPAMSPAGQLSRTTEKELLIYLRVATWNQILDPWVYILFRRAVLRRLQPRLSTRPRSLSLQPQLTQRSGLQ

[6] = biological target: T3, prostaglandin D2 (PGD2) receptor (Homo sapiens, UniProt Q9Y5Y4); test: Functional cAMP production assay, PGD2 receptor; assay type: cell-based; conditions: replicate values
T3 sequence (Q9Y5Y4 1-395): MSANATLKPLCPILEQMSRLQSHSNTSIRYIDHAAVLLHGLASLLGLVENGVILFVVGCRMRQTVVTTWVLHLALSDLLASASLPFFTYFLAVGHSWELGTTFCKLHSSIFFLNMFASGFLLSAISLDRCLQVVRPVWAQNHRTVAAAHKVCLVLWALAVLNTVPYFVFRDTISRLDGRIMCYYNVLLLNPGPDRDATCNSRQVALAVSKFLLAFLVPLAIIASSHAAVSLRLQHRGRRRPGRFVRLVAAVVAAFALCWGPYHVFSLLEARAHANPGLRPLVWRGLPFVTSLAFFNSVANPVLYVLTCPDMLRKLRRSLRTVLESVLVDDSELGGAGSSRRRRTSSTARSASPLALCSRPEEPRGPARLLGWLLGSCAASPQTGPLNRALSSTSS

[7] = PRESTO-Tango -logIC50, antagonist mode, EC80 of PGE2
[8] = PRESTO-Tango IC50 (nM), antagonist mode, EC80 of PGE2

T1 sequence (P35408 whole entry, the tested form may be a part): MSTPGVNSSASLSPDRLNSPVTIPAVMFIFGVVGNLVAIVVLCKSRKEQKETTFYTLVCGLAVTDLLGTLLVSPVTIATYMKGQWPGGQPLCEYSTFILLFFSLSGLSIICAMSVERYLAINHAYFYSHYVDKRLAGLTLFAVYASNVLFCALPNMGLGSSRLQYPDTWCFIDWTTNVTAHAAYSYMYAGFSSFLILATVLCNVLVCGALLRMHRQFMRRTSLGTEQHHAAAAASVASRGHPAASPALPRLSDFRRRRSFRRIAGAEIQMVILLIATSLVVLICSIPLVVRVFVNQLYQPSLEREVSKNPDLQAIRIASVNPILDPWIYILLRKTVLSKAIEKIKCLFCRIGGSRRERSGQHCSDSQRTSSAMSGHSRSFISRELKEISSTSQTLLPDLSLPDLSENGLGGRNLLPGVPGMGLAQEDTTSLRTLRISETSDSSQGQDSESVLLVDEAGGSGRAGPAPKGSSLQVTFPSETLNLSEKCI
Chain of wild-type EP4R (P35408 whole entry): as the sequence (P35408 whole entry, the tested form may be a part) above

Question: Which results are given for `Cn1c2ccccc2c2c(NC3CC4(CCC(C(=O)O)CC4)C3)ncnc21` (stereo not drawn) [Compound 75, CN1C=2C=CC=CC2C=3C(NC4CC5(C4)CCC(CC5)C(=O)O)=NC=NC13]?
Answer: IC50 [1]: 0.813 µM; Ki [1]: 0.163 µM; reduced potency of analog [1]: up to 10 fold; IC50 ([2]; PRESTO-Tango IC50 (nM)): 607 nM; Ki [2]: 121 nM

Question: How did the Ki [3] turn out when `O=C(N[C@@H]1CC[C@@H](C(=O)O)CCC1(F)F)c1c[nH]c(-c2ccccc2)c1` [Compound 80, OC(=O)[C@@H]1CC[C@@H](NC(=O)C2=CNC(=C2)C=3C=CC=CC3)C(F)(F)CC1] was run?
Answer: 1.38 µM

Question: What about the IC50 [2, 7] of the same molecule?
Answer: 18600 nM

Question: What about the IC50 [2, 8] of the same molecule?
Answer: > 10000 nM

Question: What does the source list for `Cc1cc(C(=O)NC2CCCC(C(=O)O)CC2)c(C)n1-c1ccc2c(c1)OCCO2` (stereo not drawn) [Compound 81, CC1=CC(C(=O)NC2CCCC(CC2)C(=O)O)=C(C)N1C=3C=CC=4OCCOC4C3]?
Answer: Ki [3]: 1.17 µM; IC50 [2, 7]: 35500 nM; IC50 [2, 8]: > 10000 nM

Question: Which Ki [3] does the source give for `Cc1cc(C(=O)N[C@H]2CC[C@H](C(=O)O)CCC2(F)F)c(C)n1-c1ccccc1` [Compound 83, CC1=CC(C(=O)N[C@H]2CC[C@@H](CCC2(F)F)C(=O)O)=C(C)N1C=3C=CC=CC3] here?
Answer: > 10 µM

Question: And the IC50 [1]?
Answer: 3.39 µM

Question: And the Ki [1]?
Answer: 0.678 µM

Question: What about the “PRESTO-Tango -logIC50” value [2] of the same molecule?
Answer: unstable

Question: What about the IC50 ([2]; PRESTO-Tango IC50 (nM)) of the same molecule?
Answer: > 10000 nM

Question: What about the Kb [4] of the same molecule?
Answer: > 10 µM

Question: For `O=C(O)C1CCC2(CC1)CC(Nc1ncnc3[nH]c4cc(F)ccc4c13)C2` (stereo not drawn) [Compound 134, OC(=O)C1CCC2(CC(C2)NC=3N=CN=C4NC=5C=C(F)C=CC5C34)CC1], which IC50 [1] is on record?
Answer: 0.155 µM

Question: What about the Ki [1] of the same molecule?
Answer: 0.031 µM

Question: What about the IC50 ([2]; PRESTO-Tango IC50 (nM)) of the same molecule?
Answer: 203 nM

Question: And the Ki [2]?
Answer: 41 nM

Question: Which results are given for `O=C(O)C1CCC2(CC1)CC(Nc1ncnc3[nH]c4ccc(Br)cc4c13)C2` (stereo not drawn) [Compound 135, OC(=O)C1CCC2(CC(C2)NC=3N=CN=C4NC=5C=CC(Br)=CC5C34)CC1]?
Answer: IC50 [1]: 0.136 µM; Ki [1]: 0.0272 µM; IC50 ([2]; PRESTO-Tango IC50 (nM)): 91.5 nM; Ki [2]: 18.3 nM

Question: How did the “Thromboxane Receptor response, U46619 alone” value (“Thromboxane Receptor response” for short) ([5]; Log[Drug] -4.52) turn out when `CCCCC[C@H](O)/C=C/[C@@H]1[C@@H](C/C=C\CCCC(=O)O)[C@H]2CO[C@@H]1C2` [Compound U46619] was run?
Answer: 101.694 and 84.622 and 99.9733

Question: What about the “Thromboxane Receptor response” value ([5]; Log[Drug] -5) of the same molecule?
Answer: 98.3839 and 68.3538 and 108.147 and 95.8866 and 103.858 and 102.233 and 110.843 and 96.4513 and 100.005 and 98.4577 and 94.7206 and 109.077

Question: And the “Thromboxane Receptor response” value ([5]; Log[Drug] -5.52)?
Answer: 90.8596 and 73.8682 and 91.1581 and 74.0123 and 88.5137 and 87.193 and 76.6016 and 83.785 and 87.9816 and 86.9707 and 87.4905

Question: What about the “Thromboxane Receptor response” value ([5]; Log[Drug] -6) of the same molecule?
Answer: 73.0479 and 61.333 and 83.5479 and 72.2309 and 75.4547 and 85.5682 and 93.0317 and 74.9476 and 75.1314 and 67.4734 and 82.2643

Question: What about the “Thromboxane Receptor response” value ([5]; Log[Drug] -6.52) of the same molecule?
Answer: 53.1945 and 46.9117 and 56.4473 and 51.2866 and 54.1589 and 49.4671 and 53.794 and 49.5996 and 46.1382 and 46.7815 and 52.9845 and 63.6908

Question: What about the “Thromboxane Receptor response” value ([5]; Log[Drug] -7) of the same molecule?
Answer: 26.7811 (2×) and 28.7836 and 26.1246 and 27.7368 and 28.2234 and 28.3716 and 27.3608 and 24.4507 and 37.3892

Question: And the “Thromboxane Receptor response” value ([5]; Log[Drug] -7.52)?
Answer: 6.98 and 11.6509 and 14.4408 and 11.9391 and 9.265 and 14.6944 and 12.5961 and 11.3627

Question: What about the “Thromboxane Receptor response” value ([5]; Log[Drug] -8) of the same molecule?
Answer: 3.852 and 4.407 and 5.259 and 6.346 and 4.095 and 3.487 and 3.973 and 12.9637 and 7.1283 and 8.507 and 7.772 and 8.062

Question: What about the “Thromboxane Receptor response” value ([5]; Log[Drug] -8.52) of the same molecule?
Answer: 0.6979 and 0.4256 and 1.264 and 1.489 and 0.4372 and 0.7674 and -0.6982 and -0.1162 and -0.5757 and -0.4127

Question: And the “Thromboxane Receptor response” value ([5]; Log[Drug] -9)?
Answer: 1.749 and 1.539 and -0.4127 and -0.8139 and 0.03755 and 0.2374 and 1.155 and 2.074 and -0.008962 and 0.4505 and -0.2293

Question: `CC(C(=O)Nc1cc(C#N)ccc1CCCC(=O)O)c1ccc(F)c2ccccc12` (stereo not drawn) [ONO-AE3-208, reference compound] was tested. Which Ki ([1]; calculated using the Cheng Prusoff equation, read-out: Arrestin-BRET Ki*) did it give?
Answer: 0.0013 µM

Question: What does the source list for `CCCCC[C@H](O)/C=C/[C@H]1C(=O)C[C@H](O)[C@@H]1C/C=C\CCCC(=O)O` [PGD2]?
Answer: Prostaglandin D2 receptor response, drug alone ([6]; Log[Drug] -7): 0.6033 and 0.644 and 0.6961 and 0.6919; Prostaglandin D2 receptor response, drug alone ([6]; Log[Drug] -7.52): 0.797 and 0.93 and 0.9088 and 0.9243 and 0.8431 and 0.8125 and 0.8754 and 0.8197 and 0.9698 and 0.7088 and 0.7525 and 0.7962; Prostaglandin D2 receptor response, drug alone ([6]; Log[Drug] -8): 0.9354 and 1 and 1.006 and 1.122 and 0.9207 and 0.9404 and 0.8901 and 0.9489 and 0.8787 and 1.018 and 0.7261 and 1.1394; Prostaglandin D2 receptor response, drug alone ([6]; Log[Drug] -8.52): 0.9328 and 0.9897 and 1.022 and 0.9062 and 0.7756 and 1.181 and 0.8387 and 1.0826 and 1.099 and 1.025 and 0.9559 and 0.8192; Prostaglandin D2 receptor response, drug alone ([6]; Log[Drug] -9): 1.112 and 0.9671 and 1.1328 and 0.9787 and 1.031 and 1.15 and 0.9594 and 0.9527 and 0.952 and 0.9619 and 1.007 and 0.8917; Prostaglandin D2 receptor response, drug alone ([6]; Log[Drug] -9.52): 0.8441 and 1.142 and 1.077 and 0.9738 and 0.9345 and 0.9535 and 0.9143 and 1.094 and 0.8709 and 1.005 and 0.9652 and 0.9465; Prostaglandin D2 receptor response, drug alone ([6]; Log[Drug] -10): 1.003 (2×) and 1.01 (2×) and 1.029 and 0.9872 and 0.9954 and 1.0644 and 0.8654 and 0.9098 and 1.022 and 1.061; Prostaglandin D2 receptor response, drug alone ([6]; Log[Drug] -10.52): 0.9812 and 1.108 and 1.015 and 0.9787 and 0.8969 and 1.051 and 1.01 and 0.8703 and 1.02 and 1.075 and 0.9632 and 0.9209; Prostaglandin D2 receptor response, drug alone ([6]; Log[Drug] -11): 0.9785 and 0.8795 and 0.9671 and 1.005 and 0.997 and 1.114 and 0.9736 and 1.021 and 1.027 and 1.076 and 1.172 and 1.01
